Results taken from ChEMBL document CHEMBL1201862, “PubChem BioAssay data set” (2004).
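Cultured in 96-well plates, cells were exposed to test compound for 48 hours across five concentrations. GI50: concentration for 50% inhibition of growth.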 Active and inactive are the calls of the source. Cut-off read from the data, not from the text of the source: active = GI50 up to about 1.1 µM and inactive = higher.

Columns and labels:
Test in all cases: inhibition of tumour cell growth, NCI panel, 48 h
[1] = tested on: SF-539
[2] = tested on: ACHN
[3] = tested on: NCI-H23
[4] = tested on: T47D
[5] = tested on: SK-MEL-28
[6] = tested on: HCC 2998
[7] = tested on: SNB-19
[8] = tested on: SF-295
[9] = tested on: OVCAR-8
[10] = tested on: SN12C
[11] = tested on: NCI/ADR-RES
[12] = tested on: KM12
[13] = tested on: MOLT-4
[14] = tested on: K562
[15] = tested on: UACC-62
[16] = tested on: MDA-N
[17] = tested on: TK-10
[18] = tested on: MDA-MB-231
[19] = tested on: NCI-H522
[20] = tested on: Hs-578T
[21] = tested on: U-251
[22] = tested on: HOP-62
[23] = tested on: SW-620
[24] = tested on: COLO 205
[25] = tested on: UO-31
[26] = tested on: OVCAR-4
[27] = tested on: M14
[28] = tested on: HT-29
[29] = tested on: HCT-116
[30] = tested on: UACC-257
[31] = tested on: SF-268
[32] = tested on: BT-549
[33] = tested on: PC-3
[34] = tested on: SR
[35] = tested on: RPMI-8226
[36] = tested on: RXF 393
[37] = tested on: IGROV-1
[38] = tested on: MDA-MB-435
[39] = tested on: MCF7
[40] = tested on: A549
[41] = tested on: A498
[42] = tested on: SNB-75
[43] = tested on: OVCAR-3
[44] = tested on: DU-145
[45] = tested on: HL-60
[46] = tested on: CCRF-CEM
[47] = tested on: HCT-15
[48] = tested on: 786-0
[49] = tested on: SK-MEL-2
[50] = tested on: SK-MEL-5
[51] = tested on: NCI-H460
[52] = tested on: Malme-3M
[53] = tested on: NCI-H226
[54] = tested on: LOX IMVI
[55] = tested on: OVCAR-5
[56] = tested on: SK-OV-3
[57] = tested on: HOP-92
[58] = tested on: EKVX
[59] = tested on: CAKI-1

Measured: GI50

Cc1nc(-c2ccc(/N=C/c3ccc(N(CCOS(C)(=O)=O)CCOS(C)(=O)=O)cc3C)cc2)cs1
inactive: [1] 3.04 µM | [2] 3.82 µM | [3] 35.4 µM | [4] 7.23 µM | [5] 97.9 µM | [6] 30 µM | [7] > 100 µM | [8] 37.7 µM | [9] 51.9 µM | [10] 27.8 µM | [11] > 100 µM | [12] 32.1 µM | [13] 2.09 µM | [14] 26.5 µM | [15] 9.59 µM | [16] 46 µM | [17] 55.5 µM | [18] 72.8 µM | [19] 24.3 µM | [20] 88.3 µM | [21] 36.9 µM | [22] 35.1 µM | [23] 67.9 µM | [24] 28.5 µM | [25] 18.7 µM | [26] 59.6 µM | [27] 60 µM | [28] 30.3 µM | [29] 34.8 µM | [30] 22.8 µM | [31] 5.14 µM | [32] 28.2 µM | [33] 20.9 µM | [34] 9.51 µM | [35] 17.8 µM | [36] 25.1 µM | [37] 28.8 µM | [38] 72.9 µM | [39] 2.44 µM | [40] 11.3 µM | [41] 2.31 µM | [42] 40.9 µM | [43] 30.8 µM | [44] 11.5 µM | [45] 3.94 µM | [46] 3.65 µM | [48] 13.8 µM | [49] > 100 µM | [50] 11.4 µM | [51] 9.46 µM | [52] 28.9 µM | [53] 5.71 µM | [54] 19.4 µM | [55] 30.8 µM | [56] 26.5 µM
77.6 µM: [47]

O=C(O)c1ccccc1C(=O)c1ccc2c(c1)Cc1ccccc1-2
inactive: [1] > 100 µM | [2] 56.6 µM | [3] > 100 µM | [4] 80.4 µM | [5] 53.7 µM | [6] 28.1 µM | [7] > 100 µM | [8] 69.7 µM | [9] 83.2 µM | [10] > 100 µM | [11] 99.1 µM | [12] 64.1 µM | [13] > 100 µM | [14] 57.9 µM | [15] 66.8 µM | [16] 48.8 µM | [17] 52.1 µM | [18] > 100 µM | [19] 41.9 µM | [20] > 100 µM | [21] 54 µM | [22] > 100 µM | [23] > 100 µM | [24] 57 µM | [25] > 100 µM | [26] > 100 µM | [27] > 100 µM | [28] 48.8 µM | [29] 73.5 µM | [30] > 100 µM | [31] > 100 µM | [32] 78.9 µM | [33] 66.4 µM | [34] 91.6 µM | [35] 60.8 µM | [36] > 100 µM | [37] > 100 µM | [38] 63.4 µM | [39] > 100 µM | [40] 33.3 µM | [41] > 100 µM | [42] > 100 µM | [43] > 100 µM | [57] > 100 µM | [44] > 100 µM | [48] > 100 µM | [49] > 100 µM | [50] > 100 µM | [51] 46.1 µM | [52] 80.9 µM | [53] 36.1 µM | [58] 68.5 µM | [59] > 100 µM | [54] 85.7 µM | [55] > 100 µM | [56] > 100 µM
57.5 µM: [47]
